Experimental data published in US11312704B2, “Inhibitors of cysteine proteases and methods of use thereof” (priority 2020, dated 2022).
pEC50: −log10 of the molar value.

What follows are molecules tested on HCoV 229E (assay: HCoV 229E cytopathic effect (CPE) assay). Conditions: CellTiter Glo.
Format: cell-based, Human Coronavirus (HCov) 229E
Procedure: The antiviral activity of compounds was calculated based on the protection of the virus-induced CPE at each concentration normalized by the virus control.
Reagents and instruments used in this assay include luminescent cell viability assay kit CellTiter Glo (Promega) and Microplate Reader Synergy2 (BioTek).
Cytopathic effect (CPE) was measured by CellTiter Glo following the manufacturer's manual. The antiviral activity of compounds was calculated based on the protection of the virus-induced CPE at each concentration normalized by the virus control.
With `COc1cccc2[nH]c(C(=O)N[C@@H](CC(C)C)C(=O)N[C@@H](C[C@@H]3CCNC3=O)C(O)C#N)cc12` (single isomer, unassigned) [134 (Isomer 1)] the pEC50 was > 5.70.
For `COc1cccc2[nH]c(C(=O)N[C@@H](CC(C)C)C(=O)N[C@@H](C[C@@H]3CCNC3=O)C(C#N)NC(C)(C)C)cc12` (single isomer, unassigned) [323 (Isomer 1)], the pEC50 was > 5.70.
`COc1cccc2[nH]c(C(=O)N[C@@H](CC(C)C)C(=O)N[C@@H](C[C@@H]3CCNC3=O)C(C#N)N3CCCC3)cc12` (single isomer, unassigned) [331 (Isomer 1)] was tested, and the pEC50 was > 5.70.
`COc1cccc2[nH]c(C(=O)N3C[C@H](c4ccccc4)C[C@H]3C(=O)N[C@@H](C[C@@H]3CCNC3=O)C(O)C#N)cc12` (single isomer, unassigned) [345 (Isomer 2)] was tested, and the pEC50 was > 5.70.
For `COc1cccc2[nH]c(C(=O)N3CC(C45CC(C4)C5)C[C@H]3C(=O)N[C@H](C#N)C[C@@H]3CCNC3=O)cc12` (single isomer, unassigned) [385 (Isomer 1)], the pEC50 was > 5.70.
For `COc1cccc2[nH]c(C(=O)N3CC4(CCCCC4)CC3C(=O)N[C@H](C#N)C[C@@H]3CCNC3=O)cc12` (single isomer, unassigned) [389A (Isomer 1)], the pEC50 was > 5.70.
For `COc1cccc2[nH]c(C(=O)N[C@@H](CC(C)C)C(=O)N[C@@H](C[C@@H]3CCNC3=O)C(C#N)NCc3ccccc3)cc12` (single isomer, unassigned) [507 (Isomer 1.1)], the pEC50 was > 5.70.
With `COc1cccc2[nH]c(C(=O)N3CC4(CCCCC4)CC3C(=O)N[C@H](C#N)C[C@@H]3CCCNC3=O)cc12` (single isomer, unassigned) [681 (Isomer 1)] the pEC50 was > 5.70.
With `COc1cccc2[nH]c(C(=O)N[C@@H](CC(C)C)C(=O)N[C@@H](C[C@@H]3CCNC3=O)C(O)C#N)cc12` (single isomer, unassigned; isomer 2) [135 (Isomer 2)] the pEC50 was > 5.70.
For `COc1cccc2[nH]c(C(=O)N[C@@H](CC(C)C)C(=O)N[C@H](C#N)C[C@@H]3CCNC3=O)cc12` [Compound 101, N-[(1S)-1-[[(1S)-1-cyano-2-[(3S)-2-oxopyrrolidin-3-yl]ethyl]carbamoyl]-3-methyl-butyl]-4-methoxy-1H-indole-2-carboxamide], the pEC50 was > 5.70.
In the case of `CC(C)C[C@H](NC(=O)c1nc2ccccc2[nH]1)C(=O)N[C@H](C#N)C[C@@H]1CCNC1=O` [Compound 103, N-[(1S)-1-[[(1S)-1-cyano-2-[(3S)-2-oxopyrrolidin-3-yl]ethyl]carbamoyl]-3-methyl-butyl]-1H-benzimidazole-2-carboxamide], the pEC50 was > 5.70.
For `CC(C)C[C@H](NC(=O)c1nc2cccc(Cl)c2[nH]1)C(=O)N[C@H](C#N)C[C@@H]1CCNC1=O` [Compound 133], the pEC50 was > 5.70.
For `COc1cccc2[nH]c(C(=O)NC(CC(C)C)C(=O)NC(CC3CCNC3=O)C(O)C#N)cc12` [Compound 134, N-[(1S)-1-[[(1S)-2-cyano-2-hydroxy-1-[[(3S)-2-oxopyrrolidin-3-yl]methyl]ethyl]carbamoyl]-3-methyl-butyl]-4-methoxy-1H-indole-2-carboxamide], the pEC50 was > 5.70.
`COc1cccc2[nH]c(C(=O)N3C[C@H](c4ccccc4)C[C@H]3C(=O)N[C@H](C#N)C[C@@H]3CCNC3=O)cc12` [Compound 171] was tested, and the pEC50 was > 5.70.
With `COc1cccc2[nH]c(C(=O)N[C@@H](CC3CCCCC3)C(=O)N[C@H](C#N)C[C@@H]3CCNC3=O)cc12` [Compound 185, N-[(1S)-2-[[(1S)-1-cyano-2-[(3S)-2-oxopyrrolidin-3-yl]ethyl]amino]-1-(cyclohexylmethyl)-2-oxo-ethyl]-4-methoxy-1H-indole-2-carboxamide] the pEC50 was > 5.70.
In the case of `COc1cccc2[nH]c(C(=O)N3C[C@H]4C([C@H]3C(=O)N[C@H](C#N)C[C@@H]3CCNC3=O)C4(C)C)cc12` (stereo partly drawn) [Compound 197, (2S,5S)—N-[(1S)-1-cyano-2-[(3S)-2-oxopyrrolidin-3-yl]ethyl]-3-(4-methoxy-1H-indole-2-carbonyl)-6,6-dimethyl-3-azabicyclo[3.1.0]hexane-2-carboxamide], the pEC50 was > 5.70.
For `COc1cccc2[nH]c(C(=O)N[C@@H](CC3CC3)C(=O)N[C@H](C#N)C[C@@H]3CCNC3=O)cc12` [Compound 205, N—((S)-1-(((S)-1-cyano-2-((S)-2-oxopyrrolidin-3-yl)ethyl)amino)-3-cyclopropyl-1-oxopropan-2-yl)-4-methoxy-1H-indole-2-carboxamide], the pEC50 was > 5.70.
`COc1cccc2[nH]c(C(=O)N[C@@H](CC(C)C)C(=O)N[C@@H](C[C@@H]3CCNC3=O)C(C#N)N[C@@H](C)c3ccccc3)cc12` (stereo partly drawn) [Compound 329] was tested, and the pEC50 was > 5.70.
With `COc1cccc2[nH]c(C(=O)N3C[C@H](c4ccccc4)CC3C(=O)N[C@H](C=O)C[C@@H]3CCNC3=O)cc12` (stereo partly drawn) [Compound 344A] the pEC50 was > 5.70.
With `COc1cccc2[nH]c(C(=O)N[C@@H](CC(C)C)C(=O)N[C@@H](C[C@@H]3CCNC3=O)C(N)C#N)cc12` (stereo partly drawn) [Compound 344C, N-[(1S)-1-[[(1S)-2-amino-2-cyano-1-[[(3S)-2-oxopyrrolidin-3-yl]methyl]ethyl]carbamoyl]-3-methyl-butyl]-4-methoxy-1H-indole-2-carboxamide] the pEC50 was > 5.70.
For `COc1cccc2[nH]c(C(=O)N3C[C@H](c4ccccc4)C[C@H]3C(=O)N[C@@H](C[C@@H]3CCNC3=O)C(O)C#N)cc12` (stereo partly drawn) [Compound 345], the pEC50 was > 5.70.
In the case of `CC(C)C[C@H](NC(=O)c1cc2c(OC(F)(F)F)cccc2[nH]1)C(=O)N[C@H](C#N)C[C@@H]1CCNC1=O` [Compound 361], the pEC50 was > 5.70.
For `CC(C)C[C@H](NC(=O)c1nc2c(OC(F)(F)F)cccc2[nH]1)C(=O)N[C@H](C#N)C[C@@H]1CCNC1=O` [Compound 363], the pEC50 was > 5.70.
With `N#C[C@H](C[C@@H]1CCNC1=O)NC(=O)[C@H](CC1CC1)NC(=O)c1cc2c(C3CC3)cccc2[nH]1` [Compound 375A] the pEC50 was > 5.70.
With `CCOc1cccc2[nH]c(C(=O)N[C@@H](CC(C)C)C(=O)N[C@H](C#N)C[C@@H]3CCNC3=O)cc12` [Compound 377] the pEC50 was > 5.70.
`COc1cccc2[nH]c(C(=O)N3C[C@@H]4CCC[C@@H]4[C@H]3C(=O)N[C@H](C#N)C[C@@H]3CCNC3=O)cc12` [Compound 393] was tested, and the pEC50 was > 5.70.
With `COc1cccc2[nH]c(C(=O)N3CC4(CC4)C[C@H]3C(=O)N[C@H](C#N)C[C@@H]3CCNC3=O)cc12` [Compound 397] the pEC50 was > 5.70.
With `COc1cccc2[nH]c(C(=O)N3CC4(CCCC4)C[C@H]3C(=O)N[C@H](C#N)C[C@@H]3CCNC3=O)cc12` [Compound 401, (S)—N—((S)-1-cyano-2-((S)-2-oxopyrrolidin-3-yl)ethyl)-2-(4-methoxy-1H-indole-2-carbonyl)-2-azaspiro[4.4]nonane-3-carboxamide] the pEC50 was > 5.70.
In the case of `COc1cccc2[nH]c(C(=O)N[C@@H](CC(C)(C)C)C(=O)N[C@H](C#N)C[C@@H]3CCNC3=O)cc12` [Compound 405, N-[(1S)-1-[[(1S)-1-cyano-2-[(3S)-2-oxopyrrolidin-3-yl]ethyl]carbamoyl]-3,3-dimethyl-butyl]-4-methoxy-1H-indole-2-carboxamide], the pEC50 was > 5.70.
With `COc1cccc2[nH]c(C(=O)N[C@@H](CC3CC3)C(=O)N[C@H](C#N)C[C@@H]3CCCNC3=O)cc12` [Compound 491, N-[(1S)-2-[[(1S)-1-cyano-2-[(3S)-2-oxo-3-piperidyl]ethyl]amino]-1-(cyclopropylmethyl)-2-oxo-ethyl]-4-methoxy-1H-indole-2-carboxamide] the pEC50 was > 5.70.
For `CC(C)C[C@H](NC(=O)c1cc2c(OC(F)F)cccc2[nH]1)C(=O)N[C@H](C#N)C[C@@H]1CCNC1=O` [Compound 509], the pEC50 was > 5.70.
With `CCNC(C#N)[C@H](C[C@@H]1CCNC1=O)NC(=O)[C@H](CC(C)C)NC(=O)c1cc2c(OC)cccc2[nH]1` (stereo partly drawn) [Compound 511, N-[(1S)-1-[[(1S)-2-cyano-2-(ethylamino)-1-[[(3S)-2-oxopyrrolidin-3-yl]methyl]ethyl]carbamoyl]-3-methyl-butyl]-4-methoxy-1H-indole-2-carboxamide] the pEC50 was > 5.70.
For `N#C[C@H](C[C@@H]1CCNC1=O)NC(=O)[C@H](CC1CC1)NC(=O)c1cc2cc(Cl)ccc2[nH]1` [Compound 519], the pEC50 was > 5.70.
In the case of `N#C[C@H](C[C@@H]1CCNC1=O)NC(=O)[C@H](CC1CC1)NC(=O)c1cc2cccc(Cl)c2[nH]1` [Compound 531, 7-chloro-N-[(1S)-2-[[(1S)-1-cyano-2-[(3S)-2-oxopyrrolidin-3-yl]ethyl]amino]-1-(cyclopropylmethyl)-2-oxo-ethyl]-1H-indole-2-carboxamide], the pEC50 was > 5.70.
In the case of `COc1cccc2[nH]c(C(=O)N[C@@H](CC3CCC3)C(=O)N[C@H](C#N)C[C@@H]3CCNC3=O)cc12` [Compound 577], the pEC50 was > 5.70.
With `CC(C)C[C@H](NC(=O)/C=C/c1ccc(Cl)cc1F)C(=O)N[C@H](C#N)C[C@@H]1CCNC1=O` [Compound 598] the pEC50 was > 5.70.
In the case of `N#C[C@H](C[C@@H]1CCCNC1=O)NC(=O)[C@H](CC1CC1)NC(=O)c1cc2ccc(Cl)cc2[nH]1` [Compound 635, 6-Chloro-N-[(1S)-2-[[(1S)-1-cyano-2-[(3S)-2-oxo-3-piperidyl]ethyl]amino]-1-(cyclopropylmethyl)-2-oxo-ethyl]-1H-indole-2-carboxamide], the pEC50 was > 5.70.
In the case of `N#C[C@H](C[C@@H]1CCCNC1=O)NC(=O)[C@H](CC1CC1)NC(=O)c1nc2c(Cl)ccc(Cl)c2[nH]1` [Compound 637, 4,7-dichloro-N-[(1S)-2-[[(1S)-1-cyano-2-[(3S)-2-oxo-3-piperidyl]ethyl]amino]-1-(cyclopropylmethyl)-2-oxo-ethyl]-1H-benzimidazole-2-carboxamide], the pEC50 was > 5.70.
In the case of `COc1cccc2[nH]c(C(=O)N[C@@H](CC(C)(C)C)C(=O)N[C@H](C#N)C[C@@H]3CCCNC3=O)cc12` [Compound 643, N-[(1S)-1-[[(1S)-1-cyano-2-[(3S)-2-oxo-3-piperidyl]ethyl]carbamoyl]-3,3-dimethyl-butyl]-4-methoxy-1H-indole-2-carboxamide], the pEC50 was > 5.70.
For `COc1cccc2[nH]c(C(=O)N[C@@H](CC(C)C)C(=O)N[C@@H](C[C@@H]3CCNC3=O)C(C#N)NCC(=O)O)cc12` (stereo partly drawn) [Compound 653], the pEC50 was > 5.70.
With `N#C[C@H](C[C@@H]1CCNC1=O)NC(=O)[C@H](CC1CC1)NC(=O)c1cc2c([nH]1)CCCC2` [Compound 711] the pEC50 was > 5.70.
`N#C[C@H](C[C@@H]1CCCNC1=O)NC(=O)[C@H](CC1CC1)NC(=O)c1cc2c(Cl)nccc2[nH]1` [Compound 715] was tested, and the pEC50 was > 5.70.
